Test results published in PubChem BioAssay (NCI).
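Where inhibition never reached the appropriate level, the endpoint shown equals the highest concentration tested. Otherwise, values were interpolated linearly from a five-concentration, 48-hour dose response in 96-well plates. TGI: total growth inhibition.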

Tests used:
Experiment in all cases: NCI anticancer screen, dose series, 48 h
[1] = system: SNB-75 CNS
[2] = system: SK-MEL-2 melanoma
[3] = system: SR leukemia
[4] = system: A549 NSCLC
[5] = system: NCI/ADR-RES ovarian
[6] = system: OVCAR-5 ovarian
[7] = system: MALME-3M melanoma
[8] = system: CCRF-CEM leukemia
[9] = system: EKVX NSCLC
[10] = system: MDA-MB-231 breast
[11] = system: HCT-116 colon
[12] = system: SK-MEL-28 melanoma
[13] = system: OVCAR-8 ovarian
[14] = system: MOLT-4 leukemia
[15] = system: T-47D breast
[16] = system: OVCAR-3 ovarian
[17] = system: UACC-257 melanoma
[18] = system: M14 melanoma
[19] = system: SF-539 CNS
[20] = system: COLO 205 colon

c1nc(N2CC2)c2cnn(C3CCCCO3)c2n1 (centres undefined)
TGI [1]: > 100 µM | TGI [2]: > 100 µM | TGI [3]: > 100 µM | TGI [4]: > 100 µM | TGI [5]: > 100 µM | TGI [6]: > 100 µM | TGI [7]: > 100 µM | TGI [8]: > 100 µM | TGI [9]: > 100 µM | TGI [10]: > 100 µM | TGI [11]: > 100 µM | TGI [12]: > 100 µM | TGI [13]: > 100 µM | TGI [14]: > 100 µM | TGI [15]: > 100 µM | TGI [16]: > 100 µM | TGI [17]: > 100 µM | TGI [18]: > 100 µM | TGI [19]: > 100 µM | TGI [20]: > 100 µM

[Cl-].[Rh+3].c1cnc2c(c1)ccc1cccnc12.c1cnc2c(c1)ccc1cccnc12.c1cnc2c(c1)ccc1cccnc12
TGI [1]: > 100 µM | TGI [2]: > 100 µM | TGI [3]: > 100 µM | TGI [4]: > 100 µM | TGI [6]: > 100 µM | TGI [7]: > 100 µM | TGI [8]: > 100 µM | TGI [9]: > 100 µM | TGI [11]: > 100 µM | TGI [13]: > 100 µM | TGI [14]: > 100 µM | TGI [16]: > 100 µM | TGI [17]: 92.5 µM | TGI [18]: 29 µM | TGI [19]: > 100 µM

CN1CCN(c2ccc3[nH]c(-c4cc(O)c5c(nc(CO)n5C)c4O)nc3n2)CC1
TGI [1]: > 100 µM | TGI [2]: 51.7 µM | TGI [4]: > 100 µM | TGI [5]: > 100 µM | TGI [6]: > 100 µM | TGI [7]: 65.4 µM | TGI [8]: 58.6 µM | TGI [9]: 85.8 µM | TGI [10]: 63.1 µM | TGI [11]: > 100 µM | TGI [12]: > 100 µM | TGI [13]: > 100 µM | TGI [14]: 48.2 µM | TGI [15]: > 100 µM | TGI [16]: > 100 µM | TGI [17]: > 100 µM | TGI [18]: > 100 µM | TGI [19]: 44 µM | TGI [20]: 43.3 µM

CCCCC(=O)c1ccc2ccccc2c1O
TGI [1]: > 100 µM | TGI [2]: > 100 µM | TGI [3]: > 100 µM | TGI [5]: > 100 µM | TGI [8]: > 100 µM | TGI [9]: > 100 µM | TGI [10]: > 100 µM | TGI [11]: > 100 µM | TGI [12]: > 100 µM | TGI [13]: > 100 µM | TGI [14]: > 100 µM | TGI [15]: > 100 µM | TGI [17]: > 100 µM | TGI [18]: > 100 µM | TGI [19]: > 100 µM | TGI [20]: > 100 µM

C[C@]12CC[C@H](OC(=O)Cc3ccc(N(CCCl)CCCl)cc3)CC1=CC[C@@H]1[C@@H]2CC[C@]2(C)C(=O)CC[C@@H]12
TGI [1]: > 100 µM | TGI [2]: > 100 µM | TGI [3]: > 100 µM | TGI [4]: > 100 µM | TGI [5]: > 100 µM | TGI [6]: > 100 µM | TGI [7]: > 100 µM | TGI [9]: > 100 µM | TGI [10]: > 100 µM | TGI [12]: > 100 µM | TGI [13]: > 100 µM | TGI [14]: > 100 µM | TGI [15]: > 100 µM | TGI [16]: > 100 µM | TGI [17]: > 100 µM | TGI [18]: > 100 µM | TGI [19]: > 100 µM | TGI [20]: > 100 µM

CCCC/C=C/C/C=C/CCCCCCCCC(=O)OCC1CCCN2CCCCC12 (centres undefined)
TGI [1]: > 100 µM | TGI [2]: > 100 µM | TGI [4]: > 100 µM | TGI [5]: > 100 µM | TGI [6]: > 100 µM | TGI [7]: > 100 µM | TGI [8]: > 100 µM | TGI [9]: > 100 µM | TGI [10]: > 100 µM | TGI [11]: > 100 µM | TGI [12]: > 100 µM | TGI [13]: > 100 µM | TGI [14]: > 100 µM | TGI [15]: 88.6 µM | TGI [16]: > 100 µM | TGI [17]: > 100 µM | TGI [18]: > 100 µM | TGI [19]: > 100 µM | TGI [20]: > 100 µM

O=C(O)CCC(=O)Nc1ccc2ccccc2c1
TGI [1]: > 100 µM | TGI [2]: > 100 µM | TGI [4]: > 100 µM | TGI [5]: > 100 µM | TGI [6]: > 100 µM | TGI [7]: > 100 µM | TGI [8]: > 100 µM | TGI [9]: > 100 µM | TGI [10]: > 100 µM | TGI [11]: > 100 µM | TGI [12]: > 100 µM | TGI [13]: > 100 µM | TGI [14]: > 100 µM | TGI [15]: > 100 µM | TGI [16]: > 100 µM | TGI [17]: > 100 µM | TGI [18]: > 100 µM | TGI [20]: > 100 µM

CCOC(=O)NC(=O)c1cn(CCNCCO)c(=O)[nH]c1=O
TGI [1]: > 100 µM | TGI [2]: > 100 µM | TGI [3]: > 100 µM | TGI [4]: > 100 µM | TGI [6]: > 100 µM | TGI [7]: > 100 µM | TGI [8]: > 100 µM | TGI [9]: > 100 µM | TGI [11]: > 100 µM | TGI [13]: > 100 µM | TGI [14]: > 100 µM | TGI [16]: > 100 µM | TGI [18]: > 100 µM | TGI [19]: > 100 µM | TGI [20]: > 100 µM

COc1ccc(CC2CCc3nc(N)nc(N)c3C2)cc1OC (centres undefined)
TGI [1]: > 100 µM | TGI [2]: > 91.6 µM | TGI [3]: > 100 µM | TGI [4]: > 53.1 µM | TGI [5]: 16.3 µM | TGI [6]: > 100 µM | TGI [7]: 23.2 µM | TGI [9]: > 91.2 µM | TGI [10]: > 75.2 µM | TGI [11]: > 100 µM | TGI [12]: > 100 µM | TGI [13]: > 62.5 µM | TGI [14]: > 100 µM | TGI [15]: > 82.6 µM | TGI [16]: > 100 µM | TGI [17]: > 54.4 µM | TGI [18]: > 39.5 µM | TGI [19]: > 40.5 µM | TGI [20]: 36 µM

CC(CCC(=O)O)(c1ccc(O)cc1)c1ccc(O)cc1
TGI [2]: > 100 µM | TGI [3]: > 100 µM | TGI [4]: > 100 µM | TGI [5]: > 100 µM | TGI [6]: > 100 µM | TGI [7]: > 100 µM | TGI [9]: > 100 µM | TGI [10]: > 100 µM | TGI [11]: > 100 µM | TGI [12]: > 100 µM | TGI [13]: > 100 µM | TGI [14]: > 100 µM | TGI [15]: > 100 µM | TGI [16]: > 100 µM | TGI [17]: > 100 µM | TGI [18]: > 100 µM

O=C(N/N=C/C=C/c1ccccc1)[C@H](O)[C@@H](O)C(=O)N/N=C/C=C/c1ccccc1
TGI [2]: > 100 µM | TGI [3]: > 100 µM | TGI [4]: > 100 µM | TGI [6]: > 100 µM | TGI [7]: > 100 µM | TGI [8]: > 100 µM | TGI [9]: > 100 µM | TGI [11]: > 100 µM | TGI [12]: > 100 µM | TGI [13]: > 100 µM | TGI [14]: > 100 µM | TGI [17]: > 100 µM | TGI [19]: > 100 µM | TGI [20]: > 100 µM
